Measurements published in patent publication US7829563B2, “Aminoamides as orexin antagonists” (Hoffmann-La Roche Inc., priority 2007, dated 2010).
Counter-ions that a name gives are not always drawn.

biological target: T1, human orexin-2 (hOX2) receptors (Homo sapiens, UniProt O43614); assay: Intracellular Ca2+ mobilization assay (FLIPR), antagonism of orexin-A; type: cell-based; details: CHO(dHFr−) cells stably expressing hOX2; orexin-A at EC80 as agonist; Kb=IC50/(1+[A]/EC50); read-out: Kb (μM) OX2R (human)
T1 construct: expressed in transfected cells
T1 sequence (O43614 1-444): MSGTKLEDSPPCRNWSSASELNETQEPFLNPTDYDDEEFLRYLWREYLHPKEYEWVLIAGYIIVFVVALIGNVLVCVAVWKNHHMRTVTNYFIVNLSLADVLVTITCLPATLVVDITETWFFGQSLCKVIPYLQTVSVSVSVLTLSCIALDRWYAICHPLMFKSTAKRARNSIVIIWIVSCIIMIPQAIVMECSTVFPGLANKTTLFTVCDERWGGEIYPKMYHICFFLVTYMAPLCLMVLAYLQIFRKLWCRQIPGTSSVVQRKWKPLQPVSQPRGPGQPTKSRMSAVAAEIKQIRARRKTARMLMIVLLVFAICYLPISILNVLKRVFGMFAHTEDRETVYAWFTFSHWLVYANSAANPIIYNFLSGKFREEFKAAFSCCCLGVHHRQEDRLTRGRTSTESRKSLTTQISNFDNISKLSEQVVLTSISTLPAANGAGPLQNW
Method in brief: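 Fluo-4-loaded CHO(dHFr−) cells stably expressing hOX2 were pre-incubated 25 min at 37° C with antagonist (11 concentrations, 0.0001-10 μM), then stimulated with orexin-A at daily-determined EC80. Peak FLIPR fluorescence was fitted to the Hill equation for IC50, and Kb was derived as IC50/(1+[A]/EC50).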

Row | Kb [µM] | Compound
1 | 0.0114 | CNC(=O)[C@H](N[C@@H](CCc1ccc(C(F)(F)F)nc1)c1ccc2c(c1)CCCC2)c1ccc(F)cc1 [Example 102, (R)-2-(4-Fluoro-phenyl)-N-methyl-2-[(S)-1-(5,6,7,8-tetrahydro-naphthalen-2-yl)-3-(6-trifluoromethyl-pyridin-3-yl)-propylamino]-acetamide]
2 | 0.0148 | CNC(=O)[C@H](N[C@@H](CCc1ccc(C(F)(F)F)nc1)c1cc(Cl)ccc1OC)c1ccc(F)cc1 [Example 104, (R)-2-[(S)-1-(5-Chloro-2-methoxy-phenyl)-3-(6-trifluoromethyl-pyridin-3-yl)-propylamino]-2-(4-fluoro-phenyl)-N-methyl-acetamide]
3 | 0.0124 | CNC(=O)[C@H](N[C@@H](CCc1ccc(C(F)(F)F)nc1)c1cc(C)ccc1F)c1ccc(F)cc1 [Example 107, (R)-2-[(S)-1-(2-Fluoro-5-methyl-phenyl)-3-(6-trifluoromethyl-pyridin-3-yl)-propylamino]-2-(4-fluoro-phenyl)-N-methyl-acetamide]
4 | 0.0061 | CNC(=O)[C@H](N[C@@H](CCc1ccc(C(F)(F)F)cc1)c1sc(C)nc1C)c1ccc(F)cc1 [Example 116, (R)-2-[(S)-1-(2,4-Dimethyl-thiazol-5-yl)-3-(4-trifluoromethyl-phenyl)-propylamino]-2-(4-fluoro-phenyl)-N-methyl-acetamide]
5 | 0.0129 | CNC(=O)[C@H](N[C@@H](CCc1ccc(C(F)(F)F)cc1)c1cc(C)ccc1F)c1ccccc1 [Example 123, (R)-2-[(S)-1-(2-Fluoro-5-methyl-phenyl)-3-(4-trifluoromethyl-phenyl)-propylamino]-N-methyl-2-phenyl-acetamide]
6 | 0.0123 | CNC(=O)[C@H](N[C@@H](CCc1ccc(C(F)(F)F)cc1)c1cc(C)ccc1F)c1ccc(F)cc1 [Example 124, (R)-2-[(S)-1-(2-Fluoro-5-methyl-phenyl)-3-(4-trifluoromethyl-phenyl)-propylamino]-2-(4-fluoro-phenyl)-N-methyl-acetamide]
7 | 0.0028 | CNC(=O)[C@H](N[C@@H](CCc1ccc(C(F)(F)F)nc1)c1ccc(OC)c(OC)c1)c1ccccc1 [Example 200, (R)-2-[(S)-1-(3,4-Dimethoxy-phenyl)-3-(6-trifluoromethyl-pyridin-3-yl)-propylamino]-N-methyl-2-phenyl-acetamide hydrochloride]
8 | 0.0173 | CNC(=O)[C@H](N[C@@H](CCc1ccc(C)nc1)c1ccc(F)c(C)c1)c1ccccc1 [Example 262, (R)-2-[(S)-1-(4-Fluoro-3-methyl-phenyl)-3-(6-methyl-pyridin-3-yl)-propylamino]-N-methyl-2-phenyl-acetamide]
9 | 0.0057 | Cc1cc([C@H](CCc2ccc(C(F)(F)F)nc2)N[C@@H](C(N)=O)c2ccccc2)ccc1F [Example 353, (R)-2-[(S)-1-(4-Fluoro-3-methyl-phenyl)-3-(6-trifluoromethyl-pyridin-3-yl)-propylamino]-2-phenyl-acetamide]
10 | 0.0048 | CNC(=O)[C@H](N[C@@H](CCc1ccc(C(F)(F)F)cc1)c1cccc(OC(F)F)c1)c1ccc(C)cc1 [Example 389, (R)-2-[(S)-1-(3-Difluoromethoxy-phenyl)-3-(4-trifluoromethyl-phenyl)-propylamino]-N-methyl-2-p-tolyl-acetamide]
11 | 0.0042 | CNC(=O)[C@H](N[C@@H](CCc1ccc(C)cc1)c1ccc(F)c(C)c1)c1ccccc1 [Example 397, (R)-2-[(S)-1-(4-Fluoro-3-methyl-phenyl)-3-p-tolyl-propylamino]-N-methyl-2-phenyl-acetamide]

Second part, the compound before the results:

Row | Compound | Kb [µM]
12 | CNC(=O)[C@H](N[C@@H](CCc1ccc(Cl)cc1)c1ccc(OC)c(OC)c1Cl)c1ccccc1 [Example 98, (R)-2-[(S)-1-(2-Chloro-3,4-dimethoxy-phenyl)-3-(4-chloro-phenyl)-propylamino]-N-methyl-2-phenyl-acetamide] | 0.0014
13 | CNC(=O)[C@H](N[C@@H](CCc1ccc(C(F)(F)F)cc1)c1ccc2c(c1)CCCO2)c1ccccc1 [Example 113, (R)-2-[(S)-1-Chroman-6-yl-3-(4-trifluoromethyl-phenyl)-propylamino]-N-methyl-2-phenyl-acetamide] | 0.0089
14 | CNC(=O)[C@H](N[C@@H](CCc1ccc(C(F)(F)F)cc1)c1ccc2c(c1)OCCN2C)c1ccccc1 [Example 115, (R)—N-Methyl-2-[(S)-1-(4-methyl-3,4-dihydro-2H-benzo[1,4]oxazin-7-yl)-3-(4-trifluoromethyl-phenyl)-propylamino]-2-phenyl-acetamide] | 0.0114
15 | CNC(=O)[C@H](N[C@@H](CCc1ccc(Cl)cc1)c1ccc(OC)c(OC)c1)c1ccccc1 [Example 163, (R)-2-[(S)-3-(4-Chloro-phenyl)-1-(3,4-dimethoxy-phenyl)-propylamino]-N-methyl-2-phenyl-acetamide] | 0.0011
16 | CNC(=O)[C@H](N[C@@H](CCc1ccc(C(F)(F)F)cc1)c1cccc(OC)c1)c1ccccc1 [Example 221, (R)-2-[(S)-1-(3-Methoxy-phenyl)-3-(4-trifluoromethyl-phenyl)-propylamino]-N-methyl-2-phenyl-acetamide hydrochloride] | 0.0026
17 | CNC(=O)[C@@H](N[C@H](CCc1ccc(C(F)(F)F)cc1)c1cccc(OC)c1)c1ccccc1 [Example 222, (S)-2-[(R)-1-(3-Methoxy-phenyl)-3-(4-trifluoromethyl-phenyl)-propylamino]-N-methyl-2-phenyl-acetamide hydrochloride] | 0.0171
18 | CNC(=O)[C@H](N[C@@H](CCc1ccc(C(F)(F)F)cc1)c1cccc(OC(F)F)c1)c1ccccc1 [Example 387, (R)-2-[(S)-1-(3-Difluoromethoxy-phenyl)-3-(4-trifluoromethyl-phenyl)-propylamino]-N-methyl-2-phenyl-acetamide] | 0.008
19 | CNC(=O)[C@H](N[C@@H](CCc1ccc(Cl)cc1)c1ccc(F)c(C)c1)c1ccccc1 [Example 392, (R)-2-[(S)-3-(4-Chloro-phenyl)-1-(4-fluoro-3-methyl-phenyl)-propylamino]-N-methyl-2-phenyl-acetamide] | 0.0059
